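Dose response: 5 concentrations. Exposure: 48 h. Format: 96-well plates. Endpoint: linear interpolation; highest concentration if not reached. GI50 is the concentration that inhibits growth by half. The concentration for full growth arrest is given as TGI.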
Tests used:
Assay in all cases: growth of human tumour cells (NCI), 48 h
786-0 renal = tested on: 786-0 renal
A498 renal = tested on: A498 renal
A549 NSCLC = tested on: A549 NSCLC
ACHN renal = tested on: ACHN renal
BT-549 breast = tested on: BT-549 breast
CAKI-1 renal = tested on: CAKI-1 renal
CCRF-CEM leukemia = tested on: CCRF-CEM leukemia
COLO 205 colon = tested on: COLO 205 colon
DU-145 prostate = tested on: DU-145 prostate
EKVX NSCLC = tested on: EKVX NSCLC
HCC-2998 colon = tested on: HCC-2998 colon
HCT-116 colon = tested on: HCT-116 colon
HCT-15 colon = tested on: HCT-15 colon
HL-60(TB) leukemia = tested on: HL-60(TB) leukemia
HOP-62 NSCLC = tested on: HOP-62 NSCLC
HOP-92 NSCLC = tested on: HOP-92 NSCLC
HS 578T breast = tested on: HS 578T breast
HT29 colon = tested on: HT29 colon
IGROV1 ovarian = tested on: IGROV1 ovarian
K-562 leukemia = tested on: K-562 leukemia
KM12 colon = tested on: KM12 colon
LOX IMVI melanoma = tested on: LOX IMVI melanoma
M14 melanoma = tested on: M14 melanoma
MALME-3M melanoma = tested on: MALME-3M melanoma
MCF7 breast = tested on: MCF7 breast
MDA-MB-231 breast = tested on: MDA-MB-231 breast
MDA-MB-435 = tested on: MDA-MB-435
MDA-MB-468 breast = tested on: MDA-MB-468 breast
MOLT-4 leukemia = tested on: MOLT-4 leukemia
NCI-H226 lung = tested on: NCI-H226 lung
NCI-H23 lung = tested on: NCI-H23 lung
NCI-H460 lung = tested on: NCI-H460 lung
NCI-H522 lung = tested on: NCI-H522 lung
NCI/ADR-RES ovarian = tested on: NCI/ADR-RES ovarian
OVCAR-3 ovarian = tested on: OVCAR-3 ovarian
OVCAR-4 ovarian = tested on: OVCAR-4 ovarian
OVCAR-5 ovarian = tested on: OVCAR-5 ovarian
OVCAR-8 ovarian = tested on: OVCAR-8 ovarian
PC-3 prostate = tested on: PC-3 prostate
RPMI-8226 leukemia = tested on: RPMI-8226 leukemia
RXF 393 renal = tested on: RXF 393 renal
SF-268 CNS = tested on: SF-268 CNS
SF-295 CNS = tested on: SF-295 CNS
SF-539 CNS = tested on: SF-539 CNS
SK-MEL-2 melanoma = tested on: SK-MEL-2 melanoma
SK-MEL-28 melanoma = tested on: SK-MEL-28 melanoma
SK-MEL-5 melanoma = tested on: SK-MEL-5 melanoma
SK-OV-3 ovarian = tested on: SK-OV-3 ovarian
SN12C renal = tested on: SN12C renal
SNB-19 CNS = tested on: SNB-19 CNS
SNB-75 CNS = tested on: SNB-75 CNS
SR leukemia = tested on: SR leukemia
SW-620 colon = tested on: SW-620 colon
T-47D breast = tested on: T-47D breast
TK-10 renal = tested on: TK-10 renal
U251 CNS = tested on: U251 CNS
UACC-257 melanoma = tested on: UACC-257 melanoma
UACC-62 melanoma = tested on: UACC-62 melanoma
UO-31 renal = tested on: UO-31 renal

For Cc1cccc(/C=C/c2ccc(NC(=S)NCCCCN(C)C)cc2)c1, the GI50 (786-0 renal) was 14.9 µM, the TGI (786-0 renal) was 30.1 µM and the GI50 (A498 renal) was 13.5 µM. It also gave a TGI (A498 renal) of 27.4 µM, a GI50 (A549 NSCLC) of 18.4 µM and a TGI (A549 NSCLC) of 39.8 µM. It also gave a GI50 (ACHN renal) of 16.3 µM, a TGI (ACHN renal) of 29.9 µM and a GI50 (BT-549 breast) of 15.3 µM. For the same molecule, the TGI (BT-549 breast) was 29.9 µM, the GI50 (CAKI-1 renal) was 14.5 µM and the TGI (CAKI-1 renal) was 27.9 µM. It also gave a GI50 (CCRF-CEM leukemia) of 11.7 µM, a TGI (CCRF-CEM leukemia) of 37.3 µM and a GI50 (COLO 205 colon) of 15.6 µM. For the same molecule, the TGI (COLO 205 colon) was 33.5 µM, the GI50 (DU-145 prostate) was 15.1 µM and the TGI (DU-145 prostate) was 29.2 µM. The GI50 (EKVX NSCLC) was 16.2 µM, the TGI (EKVX NSCLC) was 31.2 µM and the GI50 (HCC-2998 colon) was 15.1 µM. For the same molecule, the TGI (HCC-2998 colon) was 29.9 µM, the GI50 (HCT-116 colon) was 11 µM and the TGI (HCT-116 colon) was 29.6 µM. For the same molecule, the GI50 (HCT-15 colon) was 11.9 µM, the TGI (HCT-15 colon) was 25.1 µM and the GI50 (HL-60(TB) leukemia) was 8.41 µM. It also gave a TGI (HL-60(TB) leukemia) of 29.7 µM, a GI50 (HOP-62 NSCLC) of 19 µM and a TGI (HOP-62 NSCLC) of 37.9 µM. The GI50 (HOP-92 NSCLC) was 8.39 µM, the TGI (HOP-92 NSCLC) was 24.3 µM and the GI50 (HS 578T breast) was 16.6 µM. For the same molecule, the TGI (HS 578T breast) was 38.4 µM, the GI50 (HT29 colon) was 5.38 µM and the TGI (HT29 colon) was 29.9 µM. The GI50 (IGROV1 ovarian) was 16.6 µM, the TGI (IGROV1 ovarian) was 31.2 µM and the GI50 (K-562 leukemia) was 3.96 µM. The TGI (K-562 leukemia) was greater than 100 µM, the GI50 (KM12 colon) was 16.5 µM and the TGI (KM12 colon) was 31.9 µM. It also gave a GI50 (LOX IMVI melanoma) of 11.6 µM, a TGI (LOX IMVI melanoma) of 25.4 µM and a GI50 (M14 melanoma) of 15.4 µM. For the same molecule, the TGI (M14 melanoma) was 31.6 µM, the GI50 (MALME-3M melanoma) was 15.8 µM and the TGI (MALME-3M melanoma) was 29.6 µM. The GI50 (MCF7 breast) was 11.8 µM, the TGI (MCF7 breast) was 27.5 µM and the GI50 (MDA-MB-231 breast) was 12.9 µM. It also gave a TGI (MDA-MB-231 breast) of 26.6 µM, a GI50 (MDA-MB-435) of 13.9 µM and a TGI (MDA-MB-435) of 27.7 µM. For the same molecule, the GI50 (MDA-MB-468 breast) was 12.7 µM, the TGI (MDA-MB-468 breast) was 26.6 µM and the GI50 (MOLT-4 leukemia) was 13.4 µM. For the same molecule, the TGI (MOLT-4 leukemia) was 37.5 µM, the GI50 (NCI-H226 lung) was 14.9 µM and the TGI (NCI-H226 lung) was 31.2 µM. For the same molecule, the GI50 (NCI-H23 lung) was 16.1 µM, the TGI (NCI-H23 lung) was 31.2 µM and the GI50 (NCI-H460 lung) was 12.8 µM. The TGI (NCI-H460 lung) was 27.3 µM, the GI50 (NCI-H522 lung) was 15.9 µM and the TGI (NCI-H522 lung) was 33.5 µM. It also gave a GI50 (NCI/ADR-RES ovarian) of 16.3 µM, a TGI (NCI/ADR-RES ovarian) of 32.3 µM and a GI50 (OVCAR-3 ovarian) of 12.7 µM. For the same molecule, the TGI (OVCAR-3 ovarian) was 26.1 µM, the GI50 (OVCAR-4 ovarian) was 14.8 µM and the TGI (OVCAR-4 ovarian) was 29 µM. For the same molecule, the GI50 (OVCAR-5 ovarian) was 15.5 µM, the TGI (OVCAR-5 ovarian) was 29.5 µM and the GI50 (OVCAR-8 ovarian) was 18.9 µM. The TGI (OVCAR-8 ovarian) was 38.1 µM, the GI50 (PC-3 prostate) was 14.2 µM and the TGI (PC-3 prostate) was 32.2 µM. The GI50 (RPMI-8226 leukemia) was 20.1 µM, the TGI (RPMI-8226 leukemia) was 72.4 µM and the GI50 (RXF 393 renal) was 11.3 µM. The TGI (RXF 393 renal) was 24.2 µM, the GI50 (SF-268 CNS) was 13.8 µM and the TGI (SF-268 CNS) was 28.5 µM. It also gave a GI50 (SF-295 CNS) of 16.2 µM, a TGI (SF-295 CNS) of 31.5 µM and a GI50 (SF-539 CNS) of 13.4 µM. For the same molecule, the TGI (SF-539 CNS) was 26.3 µM, the GI50 (SK-MEL-2 melanoma) was 18.5 µM and the TGI (SK-MEL-2 melanoma) was 34.9 µM. The GI50 (SK-MEL-28 melanoma) was 15.6 µM, the TGI (SK-MEL-28 melanoma) was 29.3 µM and the GI50 (SK-MEL-5 melanoma) was 15.9 µM. For the same molecule, the TGI (SK-MEL-5 melanoma) was 29.4 µM, the GI50 (SK-OV-3 ovarian) was 19.7 µM and the TGI (SK-OV-3 ovarian) was 36.4 µM. The GI50 (SN12C renal) was 14.9 µM, the TGI (SN12C renal) was 29 µM and the GI50 (SNB-19 CNS) was 16.1 µM. For the same molecule, the TGI (SNB-19 CNS) was 29.8 µM, the GI50 (SNB-75 CNS) was 9.05 µM and the TGI (SNB-75 CNS) was 21.9 µM. For the same molecule, the GI50 (SR leukemia) was 12.2 µM, the TGI (SR leukemia) was 39.2 µM and the GI50 (SW-620 colon) was 14.8 µM. It also gave a TGI (SW-620 colon) of 29.5 µM, a GI50 (T-47D breast) of 16.9 µM and a TGI (T-47D breast) of 36.9 µM. For the same molecule, the GI50 (TK-10 renal) was 20.7 µM, the TGI (TK-10 renal) was 38.5 µM and the GI50 (U251 CNS) was 16.1 µM. The TGI (U251 CNS) was 33.7 µM, the GI50 (UACC-257 melanoma) was 18.1 µM and the TGI (UACC-257 melanoma) was 34.8 µM. It also gave a GI50 (UACC-62 melanoma) of 15.9 µM, a TGI (UACC-62 melanoma) of 29.6 µM and a GI50 (UO-31 renal) of 14.2 µM. The TGI (UO-31 renal) was 27.3 µM.

Reference: PubChem BioAssay (NCI)
